Source: patent US4985558A, “1,4-dihydropyridine derivative” (Nikken Chemicals Co., Ltd., priority 1988, dated 1991)
Values joined by “and” are separate entries in the source; they are usually repeats but may differ in a detail not shown here. Identical values can stand only once.

Columns and labels:
[1] = system: vincristine (VCR)-resistant mouse leukemia (P388/VCR) cells; test: Antitumor agent potentiating effect in vincristine-resistant tumor bearing mouse (Example 11, i.p. 5 days); format: in vivo
Procedure: The potentiating effect of the antitumor agent (T/V) % was determined according to the formula shown below. Verapamil was employed as the positive Control compound. […] In the Tables, Compound 1 is the compound obtained in Example 1, Compound 2 that obtained in Example 2, Compound 3 that obtained in Example 3, Compound 4 that obtained in Example 4, and Compound 5 that obtained in Example 5. [formula]

rat rectum smooth muscle = test: Inhibitory effects on potassium contracture in rat rectum smooth muscle; format: cell-based; conditions: 5 min, K contraction 5.6 to 56.0 mM, read-out: Inhibition ratio; for inhibition at 0.1 µM: 10^-7 M; for inhibition at 0.01 µM: 10^-8 M
Procedure: Rat rectum (about 1.5 cm) was isolated and suspended in a Magnus tube. A Locke solution was employed as the nutrient solution, and a contraction of the intestinum rectum was caused by changing the potassium (K) concentration of this solution from 5.6 mmol (mM) to 56.0 mM. This contraction was a contraction through a membrane dependent Ca-channel mediated contraction based on depolarization by a K concentration change. The contraction was recorded by an FD-transducer and polygraph. The compounds of the present invention were permitted to act 5 minutes before changing the K concentration, and simultaneously with changing the K concentration. […] A judgement was made 5 minutes after changing the K concentration, and the difference in contraction before the concentration change was indicated as an inhibition % value. Verapamil and nicardipine were employed as the positive control compound .

ICR mice = test: acute toxicity test; conditions: mouse, in vivo;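 further: intraperitoneal dosing with deaths counted over 10 days of observation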
Procedure: Male 6-week-old ICR mice were divided into groups of 2 to 5 mice per group. […] The drugs to be tested were administered in varying amounts of 250 to 2000 mg/kg to 5 or 7 groups (a geometrical series of .cent.2), at a dose volume of 10 ml/kg. In the Table, the respective compounds have the same meanings as described above.

[2] = system: spontaneously hypertensive rats (SHR); conditions: rat, in vivo, ip, 100 mg/kg
Procedure: The systolic blood pressure was measured by using spontaneously hypertensive rats (SHR), which are a model of hypertension when examine the hypotensive activities of the compounds of the present invention and the positive Control compound. The rats were warmed for 5 minutes in a warming box at 55° C., and their blood pressure then measured by a tail cuff plethysmograph. The compounds of the present invention were administered singly and intraperitoneally at a dose of 100 mg/kg and the positive Control compound was administered singly and intraperitoneally at a dose of 10 mg/kg. […] Blood pressure measurements were taken before administration and 60 minutes after administration. Nicardipine was employed as the positive Control compound.

[3] = compound 100 mg/kg i.p. + VCR 30 μg/kg i.p.
[4] = compound alone 100 mg/kg i.p., no VCR

Structure (SMILES) | Potentiating effect T/V [1, 3] [%] | Survival Days (Mean ± SD) [1, 3] [days] | Survival ratio T/C [1, 3] [%] | Survival Days (Mean ± SD) [1, 4] [days] | Survival ratio T/C [1, 4] [%] | inhibition at 0.1 µM (rat rectum smooth muscle) [%] | inhibition at 0.01 µM (rat rectum smooth muscle) [%] | Mortality (ICR mice) | Blood pressure change [2] [mmHg] | Systolic Blood Pressure 60 minutes after administration [2] [mmHg]
CC1=C(C(=O)OCc2cccc(C)n2)C(C2=COCCO2)C(C(=O)OCc2cccc(C)n2)=C(C)N1 [Compound 2] | 130 | 13.7 ± 1.0 | 140 | 10.3 ± 0.5 | 105 | -2.1 | -5.6 | 0/4 and 1/5 and 0/5 | -15 | 204
CC1=C(C(=O)OCCCc2cccnc2)C(C2=COCCO2)C(C(=O)OCCCc2cccnc2)=C(C)N1 [Compound 3, bis[3-(3-pyridyl)propyl]4-[2-(5,6-dihydro-p-dioxinyl)]-2,6-dimethyl-1,4-dihydropyridine-3,5-dicarboxylate] | 130 | 13.7 ± 1.5 | 140 | 10.3 ± 0.5 | 105 | -4.2 | -11.5 | 4/4 and 3/4 and 1/5 and 2/5 and 0/5 | – | –
